Tests used:
[1] = biological target: T1, Protein kinase C eta type (Mus musculus, UniProt P23298); test: Inhibition of [3H]- PDBu binding to peptide D of mouse skin Protein kinase C eta
[2] = biological target: T2, Protein kinase C gamma type (Rattus norvegicus, UniProt P63319); test: Inhibition of [3H]- PDBu binding to peptide C, rat brain PKC gamma (inactive)
[3] = biological target: T1, Protein kinase C eta type; test: Inhibition of [3H]- PDBu binding to peptide D of mouse skin Protein kinase C eta (inactive)
[4] = biological target: T2, Protein kinase C gamma type; test: Inhibition of [3H]- PDBu binding to peptide C, rat brain PKC gamma

T1 sequence (P23298 whole entry): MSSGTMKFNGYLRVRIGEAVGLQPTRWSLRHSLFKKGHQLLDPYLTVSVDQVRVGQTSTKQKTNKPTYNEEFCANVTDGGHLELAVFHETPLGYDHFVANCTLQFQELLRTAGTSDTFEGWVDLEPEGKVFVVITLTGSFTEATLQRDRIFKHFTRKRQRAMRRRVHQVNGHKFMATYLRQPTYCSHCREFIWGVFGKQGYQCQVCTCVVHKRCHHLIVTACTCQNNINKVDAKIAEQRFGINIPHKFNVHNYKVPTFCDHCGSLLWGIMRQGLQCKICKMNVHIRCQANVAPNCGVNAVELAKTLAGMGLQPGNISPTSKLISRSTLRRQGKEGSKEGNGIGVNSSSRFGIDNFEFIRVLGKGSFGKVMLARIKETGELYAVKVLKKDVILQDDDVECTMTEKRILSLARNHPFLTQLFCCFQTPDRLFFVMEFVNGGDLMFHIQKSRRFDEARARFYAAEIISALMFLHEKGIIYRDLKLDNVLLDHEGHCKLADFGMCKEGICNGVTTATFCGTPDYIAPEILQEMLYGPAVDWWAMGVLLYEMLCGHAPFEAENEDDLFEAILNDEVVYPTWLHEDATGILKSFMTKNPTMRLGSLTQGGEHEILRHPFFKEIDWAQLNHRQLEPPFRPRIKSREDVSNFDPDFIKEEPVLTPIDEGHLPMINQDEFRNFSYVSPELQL

SMILES | Ki [1] [nM] | Ki [2] | Ki [3] | Ki [4] [nM]
CCCCCCCC(=O)OCC(CO)OC(=O)CCCCCCC (configuration not stated) [MONOCTANOIN COMPONENT C] | 14.5 | – | – | –
CCCCCCCCCC(=O)O[C@@H]1[C@@H](C)[C@@]2(O)[C@@H](C=C(CO)C[C@@]3(O)C(=O)C(C)=C[C@@H]23)[C@@H]2C(C)(C)[C@]12OC(=O)CCCCCCCCC | – | Not Active | Not Active | –
C=C[C@@]1(C)CC[C@](C)(C(C)C)c2cc3c4c(c[nH]c4c21)C[C@@H](CO)NC(=O)[C@H](C(C)C)N3C | 0.1 | – | – | 2
CCCC(=O)O[C@@H]1[C@@H](C)[C@@]2(O)[C@@H](C=C(CO)C[C@]3(O)C(=O)C(C)=C[C@@H]23)[C@@H]2C(C)(C)[C@]12OC(=O)CCC | 0.6 | – | – | 52.9

Source: ChEMBL document CHEMBL1128970, “Synthesis and characterization of the second cysteine-rich region of mouse skin PKCGh” (Bioorg Med Chem Lett, 1996)
